Columns and labels:
JAK1 = target: T1, JAK1 (Homo sapiens, UniProt P23458); test: JAK1 microfluidic kinase assay (Caliper EZ Reader II, FAM labeled peptide substrate); assay type: biochemical; conditions: IC50 JAK1 (5 nM) (1 m MATP), JAK1 5 nM, 1 mM ATP
T1 construct: purchased Carna Biosciences
Procedure, shortened: (§1)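 Microfluidic mobility-shift kinase assay in 50 mM HEPES, 0.01% Brij35, 10 mM MgCl2, 2 mM DTT. IC50 values come from percent-inhibition curves normalised to uninhibited and enzyme-free controls.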

JAK2 = target: T2, JAK2 (Homo sapiens, UniProt O60674); test: JAK2 microfluidic kinase assay (Caliper EZ Reader II, FAM labeled peptide substrate); assay type: biochemical
T2 construct: purchased Carna Biosciences
T2 sequence (O60674 whole entry): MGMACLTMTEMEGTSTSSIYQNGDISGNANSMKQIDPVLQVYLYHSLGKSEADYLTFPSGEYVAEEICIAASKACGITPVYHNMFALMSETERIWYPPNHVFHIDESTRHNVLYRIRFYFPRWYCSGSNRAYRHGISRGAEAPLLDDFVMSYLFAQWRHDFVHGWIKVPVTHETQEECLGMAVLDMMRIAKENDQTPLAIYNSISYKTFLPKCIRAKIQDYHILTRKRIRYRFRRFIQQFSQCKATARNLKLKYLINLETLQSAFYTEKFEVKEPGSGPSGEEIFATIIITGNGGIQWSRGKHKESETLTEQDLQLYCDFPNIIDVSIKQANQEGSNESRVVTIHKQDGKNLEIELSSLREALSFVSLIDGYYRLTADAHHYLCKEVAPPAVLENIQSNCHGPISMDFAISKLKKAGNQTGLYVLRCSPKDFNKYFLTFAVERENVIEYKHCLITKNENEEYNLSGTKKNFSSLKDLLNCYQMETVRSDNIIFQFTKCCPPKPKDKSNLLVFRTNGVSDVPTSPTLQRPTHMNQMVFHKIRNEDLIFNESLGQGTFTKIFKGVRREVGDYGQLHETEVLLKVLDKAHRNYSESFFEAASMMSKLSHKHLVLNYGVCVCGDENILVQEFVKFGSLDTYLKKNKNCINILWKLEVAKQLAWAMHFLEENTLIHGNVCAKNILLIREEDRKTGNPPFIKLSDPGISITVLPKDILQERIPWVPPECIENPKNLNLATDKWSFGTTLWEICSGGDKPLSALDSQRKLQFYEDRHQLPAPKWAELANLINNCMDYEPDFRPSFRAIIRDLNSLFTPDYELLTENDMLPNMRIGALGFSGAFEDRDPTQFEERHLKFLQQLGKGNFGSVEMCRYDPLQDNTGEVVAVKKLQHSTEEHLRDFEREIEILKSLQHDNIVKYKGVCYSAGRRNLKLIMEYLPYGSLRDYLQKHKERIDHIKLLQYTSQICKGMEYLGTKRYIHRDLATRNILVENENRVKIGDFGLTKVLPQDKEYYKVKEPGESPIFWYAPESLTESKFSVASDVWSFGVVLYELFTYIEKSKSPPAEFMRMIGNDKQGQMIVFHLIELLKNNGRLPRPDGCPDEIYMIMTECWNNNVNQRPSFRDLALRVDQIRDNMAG
Procedure, shortened: as §1

JAK2V617F = target: T3, JAK2V617F (Homo sapiens, UniProt O60674, V617F); test: JAK2V617F microfluidic kinase assay (Caliper EZ Reader II, FAM labeled peptide substrate); assay type: biochemical; conditions: JAK2V617F 2.5 nM, 1 mM ATP
T3 construct: purchased Carna Biosciences
T3 sequence (O60674 whole entry V617F): as the sequence (O60674 whole entry) above, with V617F counted along it
Procedure, shortened: as §1

TYK2 = target: T4, TYK2 (Homo sapiens, UniProt P29597); test: TYK2 microfluidic kinase assay (Caliper EZ Reader II, FAM labeled peptide substrate); assay type: biochemical; conditions: IC50 TYK2 ([…]) (1 mM ATP), TYK2 […], 1 mM ATP
T4 construct: purchased Carna Biosciences
T4 sequence (P29597 whole entry): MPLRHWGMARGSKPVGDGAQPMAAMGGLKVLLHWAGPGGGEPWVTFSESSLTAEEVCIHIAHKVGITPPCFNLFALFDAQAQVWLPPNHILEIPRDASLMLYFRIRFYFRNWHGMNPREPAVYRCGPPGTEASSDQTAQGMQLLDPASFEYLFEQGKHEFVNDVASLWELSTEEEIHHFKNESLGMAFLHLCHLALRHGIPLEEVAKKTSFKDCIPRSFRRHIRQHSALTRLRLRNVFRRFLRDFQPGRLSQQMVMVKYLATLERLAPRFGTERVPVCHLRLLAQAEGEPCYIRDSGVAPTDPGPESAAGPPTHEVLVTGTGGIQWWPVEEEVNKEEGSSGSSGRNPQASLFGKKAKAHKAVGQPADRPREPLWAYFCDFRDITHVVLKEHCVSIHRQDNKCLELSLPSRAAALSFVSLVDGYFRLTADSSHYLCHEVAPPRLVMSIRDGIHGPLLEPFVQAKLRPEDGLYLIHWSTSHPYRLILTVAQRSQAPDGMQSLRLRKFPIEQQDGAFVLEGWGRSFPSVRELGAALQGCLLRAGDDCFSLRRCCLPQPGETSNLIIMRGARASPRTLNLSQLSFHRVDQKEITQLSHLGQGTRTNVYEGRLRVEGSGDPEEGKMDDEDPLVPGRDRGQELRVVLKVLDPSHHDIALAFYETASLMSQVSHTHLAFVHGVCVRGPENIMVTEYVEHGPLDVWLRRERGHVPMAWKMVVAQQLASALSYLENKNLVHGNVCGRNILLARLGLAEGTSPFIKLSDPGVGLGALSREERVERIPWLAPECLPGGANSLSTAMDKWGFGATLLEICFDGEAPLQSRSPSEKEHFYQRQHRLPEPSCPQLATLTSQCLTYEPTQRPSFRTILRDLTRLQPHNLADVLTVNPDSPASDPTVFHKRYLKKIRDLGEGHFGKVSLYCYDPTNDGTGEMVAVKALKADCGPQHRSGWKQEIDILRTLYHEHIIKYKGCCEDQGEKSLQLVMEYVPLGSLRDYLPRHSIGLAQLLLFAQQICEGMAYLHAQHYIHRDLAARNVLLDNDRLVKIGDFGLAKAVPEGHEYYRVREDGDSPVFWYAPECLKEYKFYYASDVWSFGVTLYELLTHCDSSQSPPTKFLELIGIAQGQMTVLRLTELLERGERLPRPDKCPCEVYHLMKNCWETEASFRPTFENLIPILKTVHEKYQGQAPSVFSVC
Procedure, shortened: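 3-fold series, top 5 μM, 1% DMSO; 10 min preincubation with enzyme, RT. Buffer 50 mM HEPES/10 mM MgCl2/2 mM DTT/0.01% Brij35. Run times JAK1 120 min, JAK2 20, JAK2V617F 30, TYK2 10. Stopped with 50 mM EDTA; IC50 from % inhibition vs no-enzyme and DMSO controls.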

CYP1A2 = target: T5, CYP1A2 (Homo sapiens, UniProt P05177); test: CYPs inhibition in pooled human liver microsomes, probe substrate Phenacetin; assay type: in vitro ADME
T5 construct: 0.2 mg/mL human liver microsomes was pre-incubated in 180 μL reaction mixture; from tissue; host or cells: pooled human liver microsomes
T5 sequence (P05177 1-516): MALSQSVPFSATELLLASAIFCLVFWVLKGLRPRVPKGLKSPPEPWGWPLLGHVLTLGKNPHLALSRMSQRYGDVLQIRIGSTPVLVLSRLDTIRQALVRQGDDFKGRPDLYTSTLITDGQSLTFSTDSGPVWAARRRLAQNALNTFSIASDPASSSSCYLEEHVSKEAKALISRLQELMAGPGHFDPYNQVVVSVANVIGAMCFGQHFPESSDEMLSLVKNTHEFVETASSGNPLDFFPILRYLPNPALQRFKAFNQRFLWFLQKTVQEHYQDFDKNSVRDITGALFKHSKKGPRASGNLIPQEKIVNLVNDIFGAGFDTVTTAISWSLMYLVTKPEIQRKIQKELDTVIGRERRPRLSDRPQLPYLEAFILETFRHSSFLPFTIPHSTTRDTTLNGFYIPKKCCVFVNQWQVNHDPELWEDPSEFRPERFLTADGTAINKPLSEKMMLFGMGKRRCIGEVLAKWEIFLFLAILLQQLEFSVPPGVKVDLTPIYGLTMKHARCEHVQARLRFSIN
Experimental: (§2) The inhibitory potential of test articles in pooled human liver microsomes was evaluated by the method using a cocktail of CYP substrates. […] For the negative control well, the test articles was replaced with 20 μL reaction buffer. After 10 min of pre-incubation at 37° C., 20 μL 10 mM NADPH cofactor was added to the pre-reaction mixtures. After another 10 min incubation, the reaction was stopped by adding 400 μL of ice cold acetonitrile solution containing tolbutamide and labetalol served as internal standards. The incubation mixtures were centrifuged at 4000×g for 20 min, and then the supernatants were analyzed by LC-MS/MS after dilution. SigmaPlot was applied to plot % control activity versus the test compound concentrations, and for non-linear regression analysis of the data. IC50 values of test articles were determined using 3-parameter logistic equation.

CYP2C9 = target: T6, CYP2C9 (Homo sapiens, UniProt P11712); test: CYPs inhibition in pooled human liver microsomes, probe substrate Diclofenac; assay type: in vitro ADME
T6 construct: 0.2 mg/mL human liver microsomes was pre-incubated in 180 μL reaction mixture; from tissue; host or cells: pooled human liver microsomes
T6 sequence (P11712 whole entry): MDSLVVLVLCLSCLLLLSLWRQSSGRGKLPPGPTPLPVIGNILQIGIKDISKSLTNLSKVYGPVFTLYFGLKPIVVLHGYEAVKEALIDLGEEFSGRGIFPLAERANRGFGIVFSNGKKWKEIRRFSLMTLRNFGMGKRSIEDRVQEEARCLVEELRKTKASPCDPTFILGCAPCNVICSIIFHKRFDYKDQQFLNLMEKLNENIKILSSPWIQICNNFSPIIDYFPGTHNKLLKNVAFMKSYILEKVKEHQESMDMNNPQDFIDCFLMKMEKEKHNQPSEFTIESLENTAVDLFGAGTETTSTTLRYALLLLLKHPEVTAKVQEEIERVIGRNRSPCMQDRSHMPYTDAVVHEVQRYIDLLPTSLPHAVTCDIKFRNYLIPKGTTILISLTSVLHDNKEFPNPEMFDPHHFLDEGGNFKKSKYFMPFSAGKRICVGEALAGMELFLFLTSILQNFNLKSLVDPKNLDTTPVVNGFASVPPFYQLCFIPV
Experimental: as §2

CYP2C19 = target: T7, CYP2C19 (Homo sapiens, UniProt P33261); test: CYPs inhibition in pooled human liver microsomes, probe substrate S-mephenytoin; assay type: in vitro ADME
T7 construct: 0.2 mg/mL human liver microsomes was pre-incubated in 180 μL reaction mixture; from tissue; host or cells: pooled human liver microsomes
Experimental: as §2

CYP2D6 = target: T8, CYP2D6 (Homo sapiens, UniProt P10635); test: CYPs inhibition in pooled human liver microsomes, probe substrate Dextromethorphan; assay type: in vitro ADME
T8 construct: 0.2 mg/mL human liver microsomes was pre-incubated in 180 μL reaction mixture; from tissue; host or cells: pooled human liver microsomes
T8 sequence (P10635 whole entry): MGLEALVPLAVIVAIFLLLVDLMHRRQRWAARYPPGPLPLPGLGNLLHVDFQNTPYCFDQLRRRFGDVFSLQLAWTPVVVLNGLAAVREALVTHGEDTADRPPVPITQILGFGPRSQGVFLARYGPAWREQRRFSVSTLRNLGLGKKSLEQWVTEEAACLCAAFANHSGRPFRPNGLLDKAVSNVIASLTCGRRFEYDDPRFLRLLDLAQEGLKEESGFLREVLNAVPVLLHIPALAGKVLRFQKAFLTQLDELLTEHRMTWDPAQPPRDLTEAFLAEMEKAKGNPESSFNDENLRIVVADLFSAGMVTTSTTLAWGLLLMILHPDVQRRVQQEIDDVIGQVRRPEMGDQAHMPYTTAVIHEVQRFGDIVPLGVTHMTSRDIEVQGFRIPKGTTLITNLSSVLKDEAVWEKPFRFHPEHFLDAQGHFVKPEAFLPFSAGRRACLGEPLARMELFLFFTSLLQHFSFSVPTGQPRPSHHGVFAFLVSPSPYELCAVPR
Experimental: as §2

CYP3A4 = target: T9, CYP3A4 (Homo sapiens, UniProt P08684); test: CYPs inhibition in pooled human liver microsomes, probe substrate Midazolam; assay type: in vitro ADME
T9 construct: 0.2 mg/mL human liver microsomes was pre-incubated in 180 μL reaction mixture; from tissue; host or cells: pooled human liver microsomes
T9 sequence (P08684 whole entry): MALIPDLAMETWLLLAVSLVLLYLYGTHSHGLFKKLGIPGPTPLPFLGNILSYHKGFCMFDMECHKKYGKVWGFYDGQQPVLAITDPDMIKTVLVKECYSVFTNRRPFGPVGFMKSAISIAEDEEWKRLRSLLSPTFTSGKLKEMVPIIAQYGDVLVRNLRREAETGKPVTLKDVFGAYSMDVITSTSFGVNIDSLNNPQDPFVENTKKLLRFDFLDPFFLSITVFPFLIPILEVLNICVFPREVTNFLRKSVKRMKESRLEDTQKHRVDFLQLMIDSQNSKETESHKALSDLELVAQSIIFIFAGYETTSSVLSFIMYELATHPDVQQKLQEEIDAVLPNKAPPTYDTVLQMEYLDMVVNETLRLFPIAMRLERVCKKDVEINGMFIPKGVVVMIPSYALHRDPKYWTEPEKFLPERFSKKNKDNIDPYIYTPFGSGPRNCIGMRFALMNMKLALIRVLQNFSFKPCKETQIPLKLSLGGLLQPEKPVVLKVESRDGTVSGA
Experimental: as §2

[1] = Liver microsomes study, Phase I stability (RLM); assay type: in vitro ADME, rat; conditions: pH 7.4; rat liver microsomes 0.5 mg/mL, 1 μM test article; read-out: RLM Clint
Procedure, shortened: (§3)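 Rat or human liver microsomes were incubated with test article, and reactions started with an NADPH regenerating system. Samples at 0, 10, 30 and 90 minutes were quenched with cold acetonitrile and analyzed by LC/MS/MS. T½ and CLint came from the ln(% remaining) versus time slope, scaled by protein concentration.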

[2] = Liver microsomes study, Phase I stability (HLM); assay type: in vitro ADME, human; conditions: pH 7.4; human liver microsomes 0.5 mg/mL, 1 μM test article; read-out: HLM Clint
Procedure, shortened: as §3

[3] = Rat pharmacokinetic study (intravenous and oral); assay type: in vivo; conditions: male, plasma, Sprague-Dawley rats, solution
Experimental: Pharmacokinetic profile of test articles in rodent were evaluated in fasted male ICR mouse and Sprague-Dawley rats. […] Typically, mice were dosed with 2 mg/kg and 10 mg/kg by intravenous injection and oral gavage, respectively. Rats were dosed with 1 mg/kg and 5 mg/kg by intravenous injection and oral gavage, respectively. Beagle dogs were dosed with 1 mg/kg and 5 mg/kg by intravenous injection and oral gavage, respectively. After dosing, blood samples were collected at each time point. For IV injection group, time points were set at 5, 15, 30 min, and then 1, 2, 4, 8 and 24 hours after dosing. For oral gavage group, timepoints were set at 15, 30 m, and then 1, 2, 4, 8, and 24 hours. Blood was collected into appropriately labeled tubes containing K2EDTA as the anticoagulant. Plasma was obtained within 1 hours of blood collection by centrifugation at 8000×g and 4° C. for 6 minutes, and then stored at −20° C. until analyzed by LCMS/MS for quantification.

[4] = Rat pharmacokinetic study (intravenous and oral); assay type: in vivo; conditions: Sprague-Dawley rats, oral, solution
FLT3D835Y = target: T10, FLT3D835Y (Homo sapiens, UniProt P36888, D835Y); test: FLT3D835Y microfluidic kinase assay; assay type: biochemical
T10 construct: purchased Carna Biosciences
T10 sequence (P36888 27-993 D835Y): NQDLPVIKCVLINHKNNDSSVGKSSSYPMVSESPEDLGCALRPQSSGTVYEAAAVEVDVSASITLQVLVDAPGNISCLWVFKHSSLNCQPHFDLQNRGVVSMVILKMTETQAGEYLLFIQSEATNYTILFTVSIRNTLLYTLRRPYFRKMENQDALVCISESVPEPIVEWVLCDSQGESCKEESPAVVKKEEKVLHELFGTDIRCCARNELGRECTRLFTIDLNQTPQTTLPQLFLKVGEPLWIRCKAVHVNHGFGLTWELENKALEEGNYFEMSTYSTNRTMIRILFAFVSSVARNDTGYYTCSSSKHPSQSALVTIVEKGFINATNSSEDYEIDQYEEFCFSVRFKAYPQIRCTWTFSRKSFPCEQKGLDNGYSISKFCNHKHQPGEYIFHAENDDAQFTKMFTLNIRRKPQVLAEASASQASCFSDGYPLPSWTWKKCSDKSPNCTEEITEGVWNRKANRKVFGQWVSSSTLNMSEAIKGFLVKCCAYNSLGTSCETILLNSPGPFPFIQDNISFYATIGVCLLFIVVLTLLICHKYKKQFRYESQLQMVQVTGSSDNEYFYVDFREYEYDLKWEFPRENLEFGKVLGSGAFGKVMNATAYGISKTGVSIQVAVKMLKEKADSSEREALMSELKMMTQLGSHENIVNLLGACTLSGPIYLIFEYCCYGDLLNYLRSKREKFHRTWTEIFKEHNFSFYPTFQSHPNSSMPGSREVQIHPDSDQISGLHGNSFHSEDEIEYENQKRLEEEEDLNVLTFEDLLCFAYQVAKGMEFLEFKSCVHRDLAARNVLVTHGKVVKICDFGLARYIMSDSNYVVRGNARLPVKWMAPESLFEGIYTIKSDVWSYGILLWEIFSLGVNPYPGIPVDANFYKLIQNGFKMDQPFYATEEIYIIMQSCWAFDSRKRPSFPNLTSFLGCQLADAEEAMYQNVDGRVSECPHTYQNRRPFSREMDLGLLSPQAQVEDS
Experimental: Compounds were tested against FLT3, FLT3ITD and FLT3D835Y.
Assay Formats: FLT3 activity was determined in the reaction buffer 50 mM HEPES, 10 mM MgCl2 and 2 mM DTT by a microfluidic assay. The phosphorylation of a FAM labeled peptide substrate was monitored in the Caliper EZ Reader II (Perkin Elmer). The assay condition for each batch of enzyme (Carna Biosciences) was optimized to obtain 10% conversion rate of peptide substrate.
The test compounds were dissolved in DMSO to a stock concentration of 10 mM. 3-fold serially diluted compounds with top concentration of 5 μM were pre-incubated with FLT3, FLT3ITD or FLT3D835Y for 10 min at ambient temperature. The final DMSO concentration of assay mixture was 1%. […] The reaction was stopped by adding 50 mM EITA. The reaction time for FLT3, FLT3ITD and FLT3D8335Y was 30 min, 40 min and 40 min, respectively.
And the well without compound but with equivalent DMSO was defined as no inhibition. The percent inhibition was calculated by the following formula. % Inhibition=(Conversionmax−Conversionsample)/(Conversionmax−Conversionmin)*100 • Conversionmax means the conversion rate in the positive well without addition of compound • Conversionmin means the conversion rate in the well without addition of enzyme • Conversionsample means the conversion rate of test compounds
The dose-response (percent inhibition) curve was plotted and IC50 values were determined by GraphPad software.

[5] = IC50 JAK2 ([…]) (1 mM ATP), 1 mM ATP

T1 sequence (P23458 whole entry): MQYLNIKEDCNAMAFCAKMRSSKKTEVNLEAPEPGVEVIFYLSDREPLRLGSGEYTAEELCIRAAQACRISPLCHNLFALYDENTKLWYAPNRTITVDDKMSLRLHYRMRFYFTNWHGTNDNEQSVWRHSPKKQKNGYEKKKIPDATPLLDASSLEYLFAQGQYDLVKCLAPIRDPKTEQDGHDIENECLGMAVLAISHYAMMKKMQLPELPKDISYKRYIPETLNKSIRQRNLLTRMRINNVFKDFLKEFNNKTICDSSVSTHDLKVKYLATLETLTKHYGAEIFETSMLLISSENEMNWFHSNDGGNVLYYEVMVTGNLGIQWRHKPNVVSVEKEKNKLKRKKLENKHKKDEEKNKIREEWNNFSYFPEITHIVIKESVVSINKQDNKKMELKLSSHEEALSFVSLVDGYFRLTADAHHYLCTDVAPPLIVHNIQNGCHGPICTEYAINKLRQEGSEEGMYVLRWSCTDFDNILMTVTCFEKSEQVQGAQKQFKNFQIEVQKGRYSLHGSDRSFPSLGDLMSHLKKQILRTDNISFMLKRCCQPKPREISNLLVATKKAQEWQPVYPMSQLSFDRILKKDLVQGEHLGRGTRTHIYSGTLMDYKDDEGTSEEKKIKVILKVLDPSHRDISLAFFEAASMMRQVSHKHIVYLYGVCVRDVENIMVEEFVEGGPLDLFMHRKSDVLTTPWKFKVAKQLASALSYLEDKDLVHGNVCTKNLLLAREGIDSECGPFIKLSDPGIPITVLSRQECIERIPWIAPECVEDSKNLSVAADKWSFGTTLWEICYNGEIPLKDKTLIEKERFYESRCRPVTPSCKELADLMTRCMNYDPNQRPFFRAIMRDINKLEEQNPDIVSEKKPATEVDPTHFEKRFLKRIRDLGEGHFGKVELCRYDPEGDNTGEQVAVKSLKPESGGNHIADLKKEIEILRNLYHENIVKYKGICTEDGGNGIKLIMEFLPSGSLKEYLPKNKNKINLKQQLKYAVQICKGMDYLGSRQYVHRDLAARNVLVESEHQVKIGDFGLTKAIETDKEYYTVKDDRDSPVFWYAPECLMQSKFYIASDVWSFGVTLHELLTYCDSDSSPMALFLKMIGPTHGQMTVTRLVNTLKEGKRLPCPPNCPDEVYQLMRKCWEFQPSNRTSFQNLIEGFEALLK

| Structure (SMILES) | IC50 (JAK1) [nM] | IC50 (JAK2; [5]) [nM] | IC50 (JAK2V617F) [nM] | IC50 (TYK2) [nM] | IC50 (CYP1A2) [nM] | IC50 (CYP2C9) [nM] | IC50 (CYP2C19) [nM] | IC50 (CYP2D6) [nM] | IC50 (CYP3A4) [nM] | microsomal CLint at 1 μM [1] [µL/min/mg] | microsomal CLint at 1 μM [2] [µL/min/mg] | AUC ([3]; intravenous, 1 mg/kg) [ng·h/mL] | Vd ([3]; intravenous, 1 mg/kg) [L/kg] | clearance ([3]; intravenous, 1 mg/kg) [mL/min/kg] | half-life ([3]; intravenous, 1 mg/kg) [min] | IC50 (FLT3D835Y) [nM] | further results |
| --- | --- | --- | --- | --- | --- | --- | --- | --- | --- | --- | --- | --- | --- | --- | --- | --- | --- |
| CC[C@@H](C#N)NC(=O)c1ccc(-c2nc(Nc3cnn(C4CCN(C)CC4)c3)ncc2Cl)cc1 [Example 88, (S)-4-(5-chloro-2-((1-(1-methylpiperidin-4-yl)-1H-pyrazol-4-yl)amino)pyrimidin-4-yl)-N-(1-cyanopropyl)benzamide] | 0.82 | 0.61 | 2.42 | 6.68 | > 50000 | 45300 | 24000 | 41900 | 32100 | 221 | 22.8 |  |  |  |  |  |  |
| C[C@@H](C#N)NC(=O)c1ccc(-c2nc(Nc3cnn(C4CCOCC4)c3)ncc2Cl)cc1 [Example 39, (S)-4-(5-chloro-2-((1-(tetrahydro-2H-pyran-4-yl)-1H-pyrazol-4-yl)amino)pyrimidin-4-yl)-N-(1-cyanoethyl)benzamide] | 18.7 |  | 5.37 |  |  |  |  |  |  | 27.5 | 54.8 | 951 | 0.7 | 17.5 | 27.6 |  | F ([4]; 10 mg/kg): 11.99%; AUC ([4]; male, rat, plasma, 10 mg/kg): 1090 ng·h/mL; Cmax ([4]; male, rat, plasma, 10 mg/kg): 346 ng/mL; half-life ([4]; male, rat, plasma, 10 mg/kg): 106 min |
| Cc1cnc(Nc2cnn(C3CCN(C(=O)C4(C)CC4)CC3)c2)nc1-c1ccc(C(=O)NCC#N)cc1 [Example 38, N-(cyanomethyl)-4-(5-methyl-2-((1-(1-(1-methylcyclopropanecarbonyl)piperidin-4-yl)-1H-pyrazol-4-yl)amino)pyrimidin-4-yl)benzamide] | 13 | < 0.25 | < 0.25 |  |  |  |  |  |  | 61 | 77.2 | 2880 | 0.28 | 6.3 | 33.6 | 7.87 | AUC ([3]; oral, 5 mg/kg): 1170 ng·h/mL; Cmax ([3]; oral, 5 mg/kg): 924 ng/mL; half-life ([3]; oral, 5 mg/kg): 84 min; F ([4]; 5 mg/kg): 8.36% |
| Cc1cnc(Nc2cnn(C3CCN(C)CC3)c2)nc1-c1ccc(C(=O)N[C@@H](C)C#N)cc1 [Example 48, (S)—N-(1-cyanoethyl)-4-(5-methyl-2-((1-(1-methylpiperidin-4-yl)-1H-pyrazol-4-yl)amino)pyrimidin-4-yl)benzamide] | 3.83 | 1.02 | 31.7 | 10.6 | > 50000 | > 50000 | > 50000 | > 50000 | > 50000 | 34.5 | 4.64 |  |  |  |  |  |  |
| Cc1cnc(Nc2cnn(C)c2)nc1-c1ccc(C(=O)NCC(C)(C)C#N)cc1 [Example 13, N-(2-Cyano-2-methylpropyl)-4-(5-methyl-2-((1-methyl-1H-pyrazol-4-yl)amino)pyrimidin-4-yl)benzamide] | 34.3 | 78.7 |  |  |  |  |  |  |  | 120 | 1.5 | 880 | 0.6 | 18.9 | 21.6 | 57.4 | IC50 (JAK2; IC50 JAK2 ([…]) (Km ATP), Km ATP): 2.7 nM |
